Assay [1] deals with J774A.1 murine macrophages. Nature of the assay: macrophages treated with palmitate in vitro. In kind it is cell-based. The conditions noted are these: 400 μM palmitate, 16 hours. The method, then:
J774A.1 murine macrophages were maintained in DMEM (10% FBS) until 80% confluence. A 2 mM palmitate solution or methanol vehicle in alpha-MEM (12% BSA) was added to fresh DMEM (10% FBS) to give a final concentration of 400 μM palmitate. Concomitantly, PDX, RvE1, RvD1 (10 or 100 nM, Cayman chemical), or vehicle was added to the media. After 16 hours, the media was collected and cells were lysed as described for the studies in C2C12 myotubes.
(§1) Snap frozen gastrocnemius muscle and liver from mice were pulverized in liquid nitrogen then lysed overnight at 4° C. in the lysis buffer described for the C2C12 myotube experiments. Immunoblotting of myotube, macrophage, liver and muscle lysates was then performed as previously described^5. Briefly, 50 ug of protein was loaded onto a 7.5% acrylamide gel, subjected to SDS-PAGE then transferred onto nitrocellulose membranes. Membranes were then blocked and probed with the appropriate antibodies. Antibodies for p-Akt ser473, p-JNK thr183/tyr185, JNK, p-AMPK thr172, AMPK, p-STAT-3 ser727 and STAT-3 were obtained from Cell Signaling Technology (MA, USA). Antibodies for total Akt and iNOS were from Santa Cruz Biotechnology (CA, USA) and BD Transduction Laboratories™ (Canada) respectively.
(§2) Chemokines and cytokines were quantified in macrophage media, or mouse plasma using the MILLIPLEX™ MAP mouse cytokine/chemokine kit (Millipore Corporation, MA, USA). Nitrite accumulation in media was determined by Greiss assay as previously described^25. Plasma insulin levels were assessed by RIA (Linco, MI, USA). FFA were measured using an enzymatic colorimetric assay (Wako Chemicals, VA, USA). Skeletal muscle and liver IL-6 were quantified using the mouse IL-6 ELISA kit from R&D systems. Total plasma adiponectin was determined using the ELISA from ALPCO.

In assay [2] the test system is C2C12 myotubes. Nature of the assay: IL-6 expression and release and AMPK phosphorylation in cultured C2C12 myotubes. In kind it is cell-based. As to the method:
C2C12 myoblasts were maintained in DMEM containing 10% FBS. Differentiation to myotubes was initiated by addition of DMEM containing 2% horse serum. The experiment was conducted 5 days after the addition of the differentiation media. Immediately prior to the commencement of experiments fresh media was added to the cells. Then vehicle or PDX (10, 100, and 1000 nM) was added to the appropriate wells. 30 and 120 minutes after the addition of PDX media was collected and frozen for IL-6 quantification and cells were washed in ice cold PBS. For extraction of mRNA cells were then lysed and scraped in 300 μl of RLT buffer (QIAGEN). For examination of AMPK activity cells were lysed and scraped in 200 μl of ice cold lysis buffer containing 50 mM HEPES pH7.5, 150 mM NaCl, 1 mM EGTA, 20 mM b-glycerophosphate, 1% NP40, 10 mM NaF, 2 mM Na3VO4, 1× protease inhibitor cocktail (Sigma).
as §1
RNA was extracted from C2C12 myotubes using an RNeasy® mini kit from QIAGEN. RNA from homogenized liver tissue was extracted using an RNeasy® fibrous tissue mini kit from QIAGEN. RNA was then reverse transcribed to cDNA using the high-capacity cDNA reverse transcription kit from applied biosystems. Real-time PCR for Ppargc1, Pck1, G6Pc, and GAPDH was then performed using Taqman assay on demand probes and primers from Applied Biosystems in a CFX96 real-time system from BIO-RAD. The relative expression of genes of interest was then determined by normalization to the housekeeping gene GAPDH using the comparative CT method for relative gene expression^30.
as §2

Assay [3] concerns J77A4 macrophages. Nature of the assay: IL-6 release from cultured macrophages in the absence of palmitate stimulation. The assay is classed as cell-based, murine. The text has this: (a-b) Skeletal muscle and liver IL-6 protein expression. (c) Total plasma adiponectin. (d) Immunoblots for pAMPK thr172 and total AMPK in skeletal muscle. (e) Immunoblots for pSTAT-3 ser727 and total STAT-3 in liver. Quantification of densitometry analyses for immunoblots are shown below the representative gels. In each case lanes were run on the same gel but were noncontiguous. (f-h) Relative mRNA expression for Ppargc1, Pck1 and G6Pc in liver. All genes were normalized to GAPDH using the delta delta CT method. All data are mean±SEM, n=6, *P<0.05, **P<0.01 vs Saline; ^†P<0.05, ^††P<0.01vs Lipid. (i) IL-6 in media of C2C12 myotubes exposed to PDX for 2 h. (j) IL-6 mRNA expression in C2C12 myotubes exposed to PDX for 2 h. (k) Immunoblots for pAMPK thr172 and total AMPK in C2C12 myotubes exposed to PDX for 2 h. Quantification of densitometry analyses for immunoblots are shown below the representative gels. Lanes were run on the same gel but were noncontiguous. Data are mean±SEM of three independent experiments. *P<0.05, **P<0.01 vs vehicle. (I) IL-6 in media of C2C12 myotubes exposed to Veh, or 100 nM of PDX, PD1, 8(S),15(s)-DiHETE, or RvD1. Data are mean±SEM of three independent experiments. **P<0.01 vs vehicle. (m) IL-6 in media of J77A4 macrophages treated with Veh, LPS, or PDX (10, 100, or 1000 nM) for 30 min, 2 h and 8 h. (n) Immunoblots for pAMPK thr172 and total AMPK in C2C12 myotubes exposed to PDX for 2h. Quantification of densitometry analyses for immunoblots are shown below the representative gels. Data are mean±SEM of three independent experiments. **P<0.01 vs vehicle.
In order to address the dichotomy in PDX's effect on IL-6 release from muscle versus macrophages, we next examined the impact of PDX on IL-6 release from cultured macrophages in the absence of palmitate stimulation (FIG. 5m). […] Since activation of AMPK represses inflammatory cytokine production in macrophages^19 this may explain the opposing effect of PDX on IL-6 expression and release in skeletal myotubes and activated macrophages.

Assay [4] concerns T37i brown adipocytes. Nature of the assay: IL-6 release from cultured brown adipocytes. In kind it is cell-based. The settings on record: norepinephrine 1 μM as adrenergic stimulus. The text has this: Since brown adipose tissue was recently shown to regulate glucose homeostasis via secretion of IL-6^20 we also examined whether PDX might raise circulating IL-6 by stimulating brown fat.

[5] abbreviates: highest dose, within 2 h, P<0.01.

Turning to `CC/C=C\C[C@H](O)/C=C/C=C\C=C\[C@@H](O)C/C=C\C/C=C\CCC(=O)O` [PDX, 10S,17S-dihydroxy-docosa-4Z,7Z,11E,13Z,15E,19Z-hexaeonic acid], in assay [1], the “iNOS and JNK activation” value was “effectively suppresses”; the “lipid-induced IL-6 production” value was “actually suppresses”. Also, in assay [1] (PDX 10 or 100 nM), the “lipid-induced secretion of CCL2/MCP-1, CCL5/RANTES, TNFα, IL-2, and IL-10” value is “effectively suppresses”. Moreover, the “IL-6 release from muscle cells” value in assay [2] (100 nM of each lipid mediator vs vehicle) is reported as “prompted IL-6 release”. For the same molecule, in assay [2] (30 minutes), the AMPK phosphorylation entry is “promotes AMPK phosphorylation” and the “IL-6 release in the media” value is listed as “no IL-6 release can be detected”. Also, the “phosphorylation of AMPK” value in assay [2] (2 h, P<0.05) is “detected”. Also, in assay [2] (setting [5]), the “increase in IL-6 mRNA expression” value is given as “more than 2 fold” and the “increase in IL-6 secretion (accumulation in media)” value was “more than 2 fold”. The AMPK phosphorylation entry in assay [3] (P<0.01) is reported as “promote AMPK phosphorylation”. The “IL-6 mRNA expression” value in assay [3] (no palmitate) is reported as “does not stimulate”. In assay [3] (no palmitate, PDX 10, 100, or 1000 nM for 30 min, 2 h and 8 h), the IL-6 release result is reported as “does not stimulate”. For the same molecule, in assay [4], the “release of IL-6” value is given as “not able to stimulate”.

(Values after patent US9782379B2, “Use of protectin DX for the stimulation of muscular IL-6 secretion” (Universite Laval, priority 2013, dated 2017).)
